Series [1] relates to rats. Put plainly: Positional sense test. The note with it: oral or intraperitoneal, 30 mg/kg. The format is in vivo, rat. On the procedure: (§1) Toxicity in mice and rats is assessed using three screens: the rotorod in mice, positional sense, and gait in rats. In mice, the test compound is administered at doses of 30, 100, and 300 mg/kg prior to evaluation in the toxicity screens. The mice are tested 0.5 hours and 4 hours after administration of the test compound. In rats, the test compound is administered at 30 mg/kg prior to the toxicity assessment. The rats are tested at 0.25, 0.5, 1, 2, and 4 hours after administration of the test compound.
Behavioral toxicity in rats weighing between 105 and 130 g is assessed by the positional sense test. […] If the rat experiences neurological toxicity, it will not be able to quickly lift its leg back to a normal position.

Series [2] has as its system mice. The experiment in a line: Rotorod neurotoxicity test. To be noted: doses as high as 300 mg/kg. The format is in vivo, mouse. The protocol:
as §1
Toxicity in mice weighing between 20.5 and 25.5 g is assessed using the standardized rotorod test (Dunham, M. S. and T. A. Miya, A note on a simple apparatus for detecting neurological deficit in rats and mice, J. Am. Pharm. Assoc. Sci. Edit (1957) 46:208-209). Control mice can maintain their equilibrium for an extended period of time when they are placed on a 6 rpm rotation rod. Neurologically impaired animals cannot maintain equilibrium for one minute in each of three successive trials.
(Falling from the rotarod earlier than controls is read as motor impairment.)

The test system of series [3] is MES-induced seizure spread (hindlimb tonic extension). The experiment in a line: Maximal Electroshock Seizure (MES) test. The format is in vivo, rat. An excerpt: The MES is an experimental model for generalized tonic-clonic seizures that identifies compounds which prevent seizure spread. The MES model is highly reproducible and has a consistent endpoint. An advantage of this model is that the behavioral and electrographic seizures are consistent with those observed in humans (Levy, R. H., Antiepileptic drugs. 3rd Ed. 1989, New York: Raven Press. xxvii, 1025. p. 85-102).
In the MES test, the animal receives an electrical stimulus, 0.2 seconds in duration, via corneal electrodes primed with an electrolyte solution containing an anesthetic agent. The 0.2 second stimulation is generated with 150 mA in rats at 60 Hz. Twenty rats, weighing between 105 g and 130 g receive an electrical stimulus 15 minutes, 30 minutes, 1 hour, 2 hours, 4 hours, 8 hours and 12 hours after oral administration of a dose of about 30 mg/kg of agmatine in phosphate buffered in saline per kg of the animal. The test endpoint, electrogenic seizure, is manifested as hindlimb tonic extension.
(Protection in the maximal electroshock model is a classic sign of anticonvulsant action.)

In series [4] the test system is rats. The experiment in a line: Gait and stance test. The format is in vivo, rat. The note with it: oral or intraperitoneal, 30 mg/kg. On the procedure:
as §1
In the gait and stance test, neurotoxicity is indicated by a circular or zigzag gait after administration of the test compound. In addition, ataxia, abnormal spread of the legs, abnormal posture, tremor hyperactivity, lack of exploratory behavior, somnolence, stupor, or catalepsy can indicate neurotoxicity. This toxicity test was conducted on 20 rats, weighing between 105 and 130 g.

In the case of `NCCCCN=C(N)N` [agmatine, 4-aminobutylguanidine], the “neurotoxicity in positional sense test” value in series [1] was “no neurotoxicity”. In series [2], the “behavioral or neurotoxicity in rotorod test” value was “none of these animals showed any evidence of behavioral or neurotoxicity”. Also, the “rats protected from MES-induced seizure spread” value in series [3] (intraperitoneal, 4 hours before electrical shock) was determined as 50%; in series [3] (oral 30 mg/kg, shock 0.25 hours after administration) it was 37.5%; in series [3] (oral 30 mg/kg, shock 0.5 hours after administration) it was 12.5%; in series [3] (oral 30 mg/kg, shock 2 hours after administration), 12.5%; in series [3] (oral 30 mg/kg, shock 4 hours after administration) it was 75%; in series [3] (oral 30 mg/kg, shock 6 hours after administration), 25%. In addition, the “neurotoxicity in gait and stance test” value in series [4] was “no neurotoxicity”.
